Key:
p21 = test: Western blotting of p21 in primary rat hepatocytes; assay type: cell-based
Excerpt: Male outbred Sprague-Dawley rats (200-300 g, Iffa Credo, Brussels, Belgium) were kept under controlled environmental conditions (12-hr light-dark cycle) and fed a standard diet (Animafabo A04, water ad libitum). Hepatocytes were isolated by a two-step collagenase perfusion as described (De Smet et al. In ‘Methods in Molecular Biology, Vol. 107: Cytochrome P450 Protocols’, Philips I R and Shephard E A, eds., pp 295-301, Humana Press, Totowa, 1998). Cell liability was >90% as determined by trypan blue exclusion. Cells (0.4×10^5 cells/cm^2) were plated in MEM/M199 (3:1), containing BSA (1 mg/ml), bovine insulin (10 μg/ml), L-glutamine (2 mM), FBS (10% v/v) and antibiotics (7.3 IU/ml benzyl penicillin, 50 μg/ml streptomycin sulphate, 50 μg/ml kanamycin monosulphstep and 10 μg/ml sodium ampicillin). Four hours after plating, serum-containing medium was removed and fresh serum-free medium was added to the cultures. Culture medium was refreshed daily. […]
Total cell extracts were prepared as described previously (Papeleu et al. J Hepatol 39: 374-382, 2003) and proteins (25 or 50 μg per lane) were separated electrophoretically by SDS-PAGE and electroblotted onto nitrocellulose membranes (Amersham Pharmacia Biotech, Buckinghamshire, UK). […] Proteins were detected using the ECL detection system (Amersham Pharmacia Biotech, Buckinghamshire, UK) according to the manufacturer's recommendations.

primary rat hepatocytes = test: Albumin secretion (ELISA) by primary rat hepatocyte cultures; assay type: cell-based
Protocol: Medium samples were collected at 72 hours of culture and analyzed for their albumin content by an enzyme-linked immunosorbent assay (ELISA) as described (Dunn et al. Biotechnol Prog 7: 237-245, 1991) Cell morphology was analyzed by light microscopy (×100). Pictures were taken using an Optiphot Nikon Phase Contrast microscope (Cetec, Brussels, Belgium).
Medium samples were collected at 72 hours of culture and analyzed for their albumin content by an enzyme-linked immunosorbent assay (ELISA) as described (Dunn et al. Biotechnol Prog 7: 237-245, 1991).

[1] = tested on: freshly isolated rat hepatocytes; test: Biotransformation in suspensions of freshly isolated rat hepatocytes; assay type: in vitro ADME
Protocol: Male outbred Sprague Dawley rats (Iffa Credo, Brussels, Belgium) weighing 200-300 g were used. The animals were kept under controlled environmental conditions (12 h light-dark cycle) and had free access to food (Animalabo A 04) and water. After intraperitoneal injection of Nembutal® (0.1 ml/kg body weight), hepatocytes were isolated as described by De Smet et al.. Cell integrity was evaluated by trypan blue exclusion, and was 88±3% (n=20). 5, 25 and 50 μM of both compounds were incubated with 2×10^6 hepatocytes/ml (final volume 3 ml) in HEPES buffer (pH 7.65, 37° C.) up to 6 h. Control samples were obtained by boiling the hepatocyte suspension for 2 min prior to the addition of substrate; cell-free controls contained the substrate in the incubation buffer without hepatocytes. At selected time intervals, 1.0 ml aliquots were submersed in liquid nitrogen to stop the biotransformation reaction.
After centrifugation (2000 g, 45 min, 4° C.) of the diluted microsomal samples, the clear supernatant was injected onto a HPLC column. Samples from incubations with hepatocytes were thawed on ice and centrifugated (120 g, 2 min). The supernatants (extracellular) were subjected to solid phase extraction (Waters Oasis™ HLB cartridges, Waters Corporation, Milford, Mass., USA), while cell pellets (intracellular) were ultrasonicated in 1 ml methanol and centrifugated (2000 g, 30 min, 4° C.). Separations ([…]) were performed by reversed-phase HPLC (Kontron chromatographic system, Milan, Italy) on a Discovery C18, 5 μm, 250×4.6 mm column (Supelco, Sigma-Aldrich, Bornem, Belgium). The mobile phase consisted of component A (0.1% (v/v) aqueous trifluoroacetic acid) and component B (0.1% (v/v) trifluoroacetic acid in acetonitrile). A linear gradient from 3 to 80% (v/v) B was used over 30 min at a flow rate of 1.0 ml/min. […]

rat hepatocytes = test: LDH index (membrane damage) in rat hepatocyte suspensions; assay type: cell-based; settings: concentrations up to 100 μM; 6 h
[2] = tested on: gap junctional intercellular communication; test: GJIC scrape loading/dye transfer assay; assay type: cell-based, rat; settings: 1 μM TSA; from D4 on
Protocol: In all conditions, the hepatocytes were cultivated as a monolayer configuration, and samples were taken at days 1, 4 and 7 (D1, D4, D7) of the cultivation time.
Scrape loading/dye transfer assay was performed as described by el-Fouly et al., 1987: 422-430. In brief, hepatocytes were scraped in the presence of 0.05% m/V Lucifer Yellow and incubated for 5 minutes at 37° C. The dye was then removed, cells were rinsed twice with PBS and fixed with 4% m/V paraformaldehyde. Evaluation was performed by fluorescence microscopy. The distance traveled by Lucifer Yellow from the scrape was used as a parameter to evaluate GJIC functionality.

time to full degradation ([1]; 50 μM, 2×10^6 hepatocytes/ml)	half-life in comparison to TSA ([1]; rat hepatocyte suspensions)	Compound	p21 accumulation (p21; 1 μM TSA during liver perfusion and culture, 72 hours)	secretion of albumin versus cells isolated in absence of TSA (primary rat hepatocytes; 1 μM TSA in the collagenase perfusion solution)	time to complete metabolism / full degradation ([1]; 50 μM, 2×10^6 hepatocytes/ml) [min]	cell viability (LDH leakage) of hepatocytes in suspension (rat hepatocytes)	GJIC activity [2]	p21 expression (p21; 50 μM 4-Me2N-BAVAH + EGF)	secretion of albumin into the culture medium compared with 1 μM TSA (primary rat hepatocytes; 50 μM 4-Me2N-BAVAH from day 0)	increase in albumin secretion (primary rat hepatocytes; 50 μM, 72 hours, versus untreated EGF-stimulated hepatocytes) [fold]
–	–	CC(C=CC(=O)NO)=CC(C)C(=O)c1ccc(N(C)C)cc1 (centres unmarked) [TSA]	complete absence of p21 accumulation	significantly higher secretion of albumin	≤ 40	did not affect cell viability	increases GJIC activity	–	–	–
more than 3 h	longer half-life	CN(C)c1ccc(C(=O)NCCCCC(=O)NO)cc1 [4-Me2N-BAVAH, 5-(4-dimethylaminobenzoyl)-aminovaleric acid hydroxamide]	–	–	–	not toxic	–	completely inhibited	significantly higher secretion of albumin	2.44±0.29

— patent publication US20090130064A1, “DIFFERENTIATION OF STEM CELLS AND STABILIZATION OF PHENOTYPICAL PROPERTIES OF PRIMARY CELLS” (priority 2004, published 2009)
